Results taken from ChEMBL document CHEMBL5550081, “Is it still worth renewing nucleoside anticancer drugs nowadays?” (Eur J Med Chem, 2024).

Assays:
[1] = Inhibition of Hepatitis C virus NS5B polymerase; parameters: species or system Hepacivirus hominis
SARS-CoV-2 = assay: Antiviral activity against SARS-CoV-2 infected in African green monkey Vero E6 cells assessed as inhibition of viral replication by qRT-PCR analysis; type: functional, organism-based; conditions: Severe acute respiratory syndrome coronavirus 2, Vero C1008
A549 [2] = assay: Antiproliferative activity against human A549 cells assessed as reduction in cell growth incubated for 72 hrs by SRB assay; type: functional, cell-based; conditions: A549, 72 h
HCT-116 [3] = assay: Antiproliferative activity against human HCT-116 cells assessed as reduction in cell growth incubated for 72 hrs by SRB assay; type: functional, cell-based; conditions: HCT-116, 72 h
PC-3 [4] = assay: Antiproliferative activity against human PC-3 cells assessed as reduction in cell growth incubated for 72 hrs by SRB assay; type: functional, cell-based; conditions: PC-3, 72 h
MDA-MB-231 [5] = assay: Antiproliferative activity against human MDA-MB-231 cells assessed as reduction in cell growth incubated for 72 hrs by SRB assay; type: functional, cell-based; conditions: MDA-MB-231, 72 h
SNU-638 = assay: Antiproliferative activity against human SNU-638 cells assessed as reduction in cell growth incubated for 72 hrs by SRB assay; type: functional, cell-based; conditions: SNU-638, 72 h
SK-HEP1 [6] = assay: Antiproliferative activity against human SK-HEP1 cells assessed as reduction in cell growth incubated for 72 hrs by SRB assay; type: functional, cell-based; conditions: SK-HEP1, 72 h
HeLa [7] = assay: Cytotoxicity against human HeLa cells; type: functional, cell-based
Ishikawa = assay: Cytotoxicity against human Ishikawa cells; type: functional, cell-based
L929 = assay: Cytotoxicity against mouse L929 cells assessed as reduction in cell viability; type: functional, cell-based
HeLa [8] = assay: Antiproliferative activity against human HeLa cells assessed as reduction in cell viability incubated for 24 hrs by MTT assay; type: functional, cell-based
PANC-1 [9] = assay: Antiproliferative activity against human PANC-1 cells assessed as reduction in cell viability incubated for 24 hrs by MTT assay; type: functional, cell-based; conditions: PANC-1, 24 h
MDA-MB-231 [10] = assay: Anticancer activity against human MDA-MB-231 cells; type: functional, cell-based
IMR-32 = assay: Cytotoxicity against human IMR-32 cells assessed as reduction in cell viability incubated for 48 hrs by MTT assay; type: functional, cell-based; conditions: IMR-32, 48 h
PC-3 [11] = assay: Antiproliferative activity against human PC-3 cells assessed as reduction in cell growth incubated for 24 hrs by MTT assay; type: functional, cell-based; conditions: PC-3, 24 h
PC-3 [12] = assay: cells; conditions: Homo sapiens, PC-3, 48 h
MCF7 [13] = assay: cells; conditions: Homo sapiens, MCF7, 48 h
A549 [14] = assay: Cytotoxicity against human A549 cells assessed as reduction in cell growth incubated for 24 hrs by MTT assay; type: functional, cell-based; conditions: A549, 24 h
MCF7 [15] = assay: Cytotoxicity against human MCF7 cells assessed as reduction in cell growth incubated for 24 hrs by MTT assay; type: functional, cell-based; conditions: MCF7, 24 h
MDA-MB-231 [16] = assay: Cytotoxicity against human MDA-MB-231 cells assessed as reduction in cell growth incubated for 24 hrs by MTT assay; type: functional, cell-based; conditions: MDA-MB-231, 24 h
PRMT5/MEP50 complex = PRMT5/MEP50 complex (Homo sapiens, UniProt O14744); assay: Inhibition of PRMT5/MEP50 (unknown origin); type: cell-based, HCC4006
PRMT5/MEP50 complex, sequence (O14744 whole entry): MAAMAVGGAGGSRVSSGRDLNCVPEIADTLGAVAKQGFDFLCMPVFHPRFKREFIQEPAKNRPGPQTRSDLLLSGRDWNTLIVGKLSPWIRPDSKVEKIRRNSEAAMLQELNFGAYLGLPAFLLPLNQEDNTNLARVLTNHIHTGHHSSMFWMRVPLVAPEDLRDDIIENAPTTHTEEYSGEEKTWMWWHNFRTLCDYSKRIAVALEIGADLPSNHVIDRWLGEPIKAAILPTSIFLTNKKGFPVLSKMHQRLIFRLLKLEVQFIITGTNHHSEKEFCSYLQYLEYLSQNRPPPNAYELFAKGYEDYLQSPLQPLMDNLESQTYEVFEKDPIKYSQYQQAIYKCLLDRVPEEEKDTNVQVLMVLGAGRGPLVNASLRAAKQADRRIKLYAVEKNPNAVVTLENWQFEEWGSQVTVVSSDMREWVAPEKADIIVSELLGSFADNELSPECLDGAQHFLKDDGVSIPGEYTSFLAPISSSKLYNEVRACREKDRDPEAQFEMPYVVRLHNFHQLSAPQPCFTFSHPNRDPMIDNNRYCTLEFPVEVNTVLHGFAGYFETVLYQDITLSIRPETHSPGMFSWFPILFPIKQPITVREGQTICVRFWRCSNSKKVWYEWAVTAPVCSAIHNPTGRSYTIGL
PRMT5/MEP50 complex, sequence (Q9BQA1 whole entry, further chain): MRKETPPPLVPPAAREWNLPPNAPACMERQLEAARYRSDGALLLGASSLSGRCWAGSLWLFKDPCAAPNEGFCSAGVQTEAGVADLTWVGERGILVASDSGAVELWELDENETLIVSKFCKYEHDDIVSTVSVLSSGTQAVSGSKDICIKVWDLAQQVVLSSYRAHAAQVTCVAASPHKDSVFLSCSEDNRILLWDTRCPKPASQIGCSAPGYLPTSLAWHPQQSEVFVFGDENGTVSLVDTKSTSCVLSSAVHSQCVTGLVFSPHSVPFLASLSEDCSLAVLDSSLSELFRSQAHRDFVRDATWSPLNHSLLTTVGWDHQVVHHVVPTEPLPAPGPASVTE

A549 [17] = assay: Cytotoxicity against human A549 cells assessed as reduction in cell viability measured for 48 hrs by MTT assay; type: functional
MCF7 [18] = assay: Cytotoxicity against human MCF7 cells assessed as reduction in cell viability measured for 48 hrs by MTT assay; type: functional
MCF7 [19] = assay: Antiproliferative activity against human MCF7 cells assessed as cell growth inhibition incubated for 48 hrs by MTT assay; type: functional, cell-based; conditions: MCF7, 48 h
Z-138 = assay: Antiproliferative activity against human Z138 cells assessed as cell growth inhibition incubated for 48 hrs by MTT assay; type: functional, cell-based; conditions: Z-138, 48 h
A549 [20] = assay: Cytotoxicity against human A549 cells; type: functional, cell-based
HCT-116 [21] = assay: Cytotoxicity against human HCT-116 cells; type: functional, cell-based
SK-HEP1 [22] = assay: Cytotoxicity against human SK-HEP1 cells; type: functional, cell-based
U-87 MG = assay: Cytotoxicity against human U-87 MG cells; type: functional, U-87MG ATCC
PANC-1 [23] = assay: Cytotoxicity against human PANC-1 cells; type: functional
U-937 = assay: Cytotoxicity against human U-937 cells assessed as reduction in cell growth incubated for 72 hrs by MTT assay; type: functional, cell-based; conditions: U-937, 72 h
HCT-116 [24] = assay: Cytotoxicity against human HCT-116 cells assessed as reduction in cell growth incubated for 72 hrs by MTT assay; type: functional, cell-based; conditions: HCT-116, 72 h

C#C[C@@]1(N)[C@H](O)[C@@H](CO)O[C@H]1n1cnc2c(=O)[nH]c(N)nc21
IC50 [1]: 1100 nM

[2H]C([2H])(O)[C@H]1O[C@@](C#N)(c2ccc3c(N)ncnn23)[C@H](O)[C@@H]1O
EC50 (SARS-CoV-2): 250 nM

C#Cc1cn([C@@H]2S[C@H](CO)[C@@H](O)[C@H]2O)c2ncnc(N)c12
IC50 (A549 [2]): 60 nM
IC50 (HCT-116 [3]): 30 nM
IC50 (PC-3 [4]): 4 nM
IC50 (MDA-MB-231 [5]): 50 nM
IC50 (SNU-638): 30 nM
IC50 (SK-HEP1 [6]): 50 nM

O=c1[nH]c(=O)n(C[C@H](O)CO)cc1C#Cc1cc2ccccc2c2ccccc12
IC50 (HeLa [7]): 39300 nM
IC50 (Ishikawa): 50200 nM
IC50 (L929): 38400 nM
IC50 (HeLa [8]): 39300 nM
IC50 (PANC-1 [9]): 39300 nM

[N-]=[N+]=N[C@@H]1[C@@H](O)[C@H](n2c(-c3c4ccccc4cc4ccccc34)nc3ccccc32)O[C@@H]1CO
IC50 (MDA-MB-231 [10]): 420 nM

C[C@H](CCC(=O)OCc1cn(C[C@H]2O[C@@H](n3ccc(=O)[nH]c3=O)[C@@H]3OC(C)(C)O[C@@H]32)nn1)[C@H]1CC[C@H]2[C@@H]3[C@H](O)C[C@@H]4C[C@H](O)CC[C@]4(C)[C@H]3C[C@H](O)[C@]12C
IC50 (IMR-32): 16800 nM
IC50 (PC-3 [11]): 17900 nM
IC50 (HeLa [8]): 96000 nM
IC50 (PC-3 [12]): 17900 nM
IC50 (MCF7 [13]): 8080 nM

CC(=O)Nc1ccn(-c2nnc(Cn3cnc4c3c(=O)n(C)c(=O)n4C)o2)c(=O)n1
IC50 (A549 [14]): 20400 nM
IC50 (MCF7 [15]): 25200 nM
IC50 (MDA-MB-231 [16]): 24700 nM

Nc1ncnc2c1ncn2[C@@H]1OC2(CC[C@H]2O)[C@@H](O)[C@H]1O (stereo not given in full)
IC50 (PRMT5/MEP50 complex): 900 nM

C=C(N)NCCOc1cccc2c1Nc1nc(=O)n([C@@H]3O[C@H](CO)[C@@H](O)[C@H]3O)cc1O2
CC50 (A549 [17]): 800 nM
CC50 (MCF7 [18]): 4300 nM

Cc1ncnc2c1ccn2[C@@H]1O[C@@H]2[C@H](Cc3ccc4cc(Br)c(N)nc4c3)OC[C@]2(O)[C@H]1O
IC50 (PRMT5/MEP50 complex): 0.8 nM
IC50 (MCF7 [19]): 3 nM
IC50 (Z-138): 15 nM

Nc1ncnc2c1c1sc3c4sccc4sc3c1n2[C@H]1C[C@@H](O)[C@@H](CO)O1
IC50 (A549 [20]): 14200 nM
IC50 (HCT-116 [21]): 1910 nM
IC50 (SK-HEP1 [22]): 480 nM

Nc1ccn([C@@H]2S[C@H](CO)[C@@H](O)[C@@H]2O)c(=O)n1 [THIARABINE]
CC50 (U-87 MG): 590 nM
CC50 (PANC-1 [23]): 590 nM

Nc1ncnc2c1ncn2Cc1ccc(-c2cn(CCCCCCC(=O)NO)nn2)cc1
IC50 (U-937): 1320 nM
IC50 (HCT-116 [24]): 17400 nM

Nc1ccn([C@@H]2O[C@H](CO)[C@@H](O)C2(F)F)c(=O)n1 [GEMCITABINE]
IC50 (HeLa [7]): 240 nM
IC50 (Ishikawa): 20300 nM
IC50 (L929): 230 nM

COc1cccc2c1C(=O)c1c(O)c3c(c(O)c1C2=O)C[C@@](O)(C(=O)CO)C[C@@H]3O[C@H]1C[C@H](N)[C@H](O)[C@H](C)O1 [DOXORUBICIN]
IC50 (IMR-32): 43 nM
CC50 (A549 [17]): 30 nM
CC50 (MCF7 [18]): 900 nM
IC50 (PC-3 [12]): 336 nM
IC50 (MCF7 [13]): 440 nM

CCCCCCCCCCCCc1ccc(-n2cc(CNCCO)nn2)cc1
IC50 (PC-3 [11]): 11000 nM
IC50 (PANC-1 [9]): 4900 nM
